This passage reports IC50 results from patent US9981950B2, “Triazoles as NR2B receptor inhibitors” (Janssen Pharmaceuticals, Inc., priority 2014, dated 2018).

pIC50: −log10 of the molar value.

Test [1] concerns the target T1, rat NR1/NR2B receptor (Rattus norvegicus (Rat), UniProt P35439+Q00960). Kind of test: RRNR2BB: inhibition of specific binding to the rat NR1/NR2B receptor. Particulars: [3H]-Ifenprodil binding, rat brain membranes, Hill-plot 2-parameter-model. In outline:
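Washed membranes from male Wistar rat forebrain (whole brain minus cerebellum) in 5 mM Tris/1 mM EDTA pH 7.4 used in ifenprodil-site binding, 60 min at 4° C. Nonspecific binding defined with […] CP101.606; bound separated by filtration on PEI-soaked filters. IC50 from Hill plot, 2-parameter model.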

The target in test [2] is T1, rat NR1/NR2B receptor. As to the kind of experiment: NR2B binding assay: inhibition of specific [3H]-Ifenprodil binding to the rat NR1/NR2B receptor. Particulars: rat brain membranes, Hill-plot 2-parameter-model. As to the method: Inhibition of Specific Binding to the Rat NR1/NR2B Receptor
Male Wistar rats (180 to 200 g) were killed by suffocation in a CO2 chamber for two minutes. Whole brains without cerebellum were removed and dissected on ice, placed into closed vials and stored at −70° C.
Membrane fractions were prepared and tested using standard techniques. At the time of the assay, 1 g of the brains was placed into 25 ml of 50 mM Tris/10 mM EDTA buffer, pH 7.1, (25 vol. per g of original tissue) and homogenized for 30 sec at 20000 rpm with an Ultraturrax T25 (Jahnke & Kunkel, IKA-Labortechnik, Staufen, Germany). The homogenate was centrifuged at 4° C. for 10 min at 48000 g (OPTIMA L-70, Beckman, Palo Alto, Calif. 94304, USA).
The supernatant was discarded and the pellet was homogenized on ice for 30 sec at 20000 rpm with an Ultraturrax and again centrifuged at 48000 g for 30 minutes at 4° C. The resulted pellet was resuspended in 25 ml of 50 mM Tris/10 mM EDTA buffer, homogenized for 30 sec with an Ultraturrax, aliquoted, frozen at −70° C. and stored until use.
After thawing on the day of the assay, a 5 ml membrane aliquot was centrifuged at 48000 g for 30 min at 4° C. The pellet was resuspended in 5 ml of 5 mM Tris/1 mM EDTA buffer, pH 7.4, homogenized for 30 sec at 20000 rpm with an Ultraturrax and centrifuged at 48000 g for 30 min at 4° C. This was repeated twice. The final pellet was homogenized in 5 ml of 5 mM Tris/l mM EDTA buffer at 4° C. with an Ultraturrax and used for the Ifenprodil-binding assay as described in the following.
Nonspecific binding was estimated in the presence of […] CP101.606. The samples were incubated for 60 min. at 4° C.
The incubation was terminated by filtration of the membrane preparations using Filtermat B (Pharmacia, Uppsala Sweden) and a Micro Cell Harvester (Skatron, Lier, Norway). The Filtermat B had been presoaked with 1% polyethylene imine and carefully washed with 50 mM Tris/HCl-buffer pH 7.7 after the filtration to separate free and bound radioactivity.
The optimal amount of membrane preparation in the assay had been determined and optimized for each membrane preparation separately before the test.
For pipetting of the incubation mixture we routinely used the robot Biomek2000 (Fa. Beckman).
For determination of IC50 values the Hill-plot, 2-parameter-model was used.

The next test deals with hERG-receptor (Homo sapiens (Human), UniProt Q12809). Kind of test: HERGBD: inhibition of specific 3H-Dofetilide binding to the hERG-receptor. The settings on record: HEK cell membranes with human ERG, Hill-plot 2-parameter-model. The gist of the method: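 Membranes from HEK cells stably expressing human ERG incubated 90 min at RT with 1.5 nmol/l 3H-dofetilide in 20 mM HEPES/0.1 mM KCl pH 7.2, inhibitor in 1% DMSO. Nonspecific binding with […] dofetilide; bound ligand separated by filtration and scintillation counted.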
Chain of hERG-receptor (Q12809 whole entry): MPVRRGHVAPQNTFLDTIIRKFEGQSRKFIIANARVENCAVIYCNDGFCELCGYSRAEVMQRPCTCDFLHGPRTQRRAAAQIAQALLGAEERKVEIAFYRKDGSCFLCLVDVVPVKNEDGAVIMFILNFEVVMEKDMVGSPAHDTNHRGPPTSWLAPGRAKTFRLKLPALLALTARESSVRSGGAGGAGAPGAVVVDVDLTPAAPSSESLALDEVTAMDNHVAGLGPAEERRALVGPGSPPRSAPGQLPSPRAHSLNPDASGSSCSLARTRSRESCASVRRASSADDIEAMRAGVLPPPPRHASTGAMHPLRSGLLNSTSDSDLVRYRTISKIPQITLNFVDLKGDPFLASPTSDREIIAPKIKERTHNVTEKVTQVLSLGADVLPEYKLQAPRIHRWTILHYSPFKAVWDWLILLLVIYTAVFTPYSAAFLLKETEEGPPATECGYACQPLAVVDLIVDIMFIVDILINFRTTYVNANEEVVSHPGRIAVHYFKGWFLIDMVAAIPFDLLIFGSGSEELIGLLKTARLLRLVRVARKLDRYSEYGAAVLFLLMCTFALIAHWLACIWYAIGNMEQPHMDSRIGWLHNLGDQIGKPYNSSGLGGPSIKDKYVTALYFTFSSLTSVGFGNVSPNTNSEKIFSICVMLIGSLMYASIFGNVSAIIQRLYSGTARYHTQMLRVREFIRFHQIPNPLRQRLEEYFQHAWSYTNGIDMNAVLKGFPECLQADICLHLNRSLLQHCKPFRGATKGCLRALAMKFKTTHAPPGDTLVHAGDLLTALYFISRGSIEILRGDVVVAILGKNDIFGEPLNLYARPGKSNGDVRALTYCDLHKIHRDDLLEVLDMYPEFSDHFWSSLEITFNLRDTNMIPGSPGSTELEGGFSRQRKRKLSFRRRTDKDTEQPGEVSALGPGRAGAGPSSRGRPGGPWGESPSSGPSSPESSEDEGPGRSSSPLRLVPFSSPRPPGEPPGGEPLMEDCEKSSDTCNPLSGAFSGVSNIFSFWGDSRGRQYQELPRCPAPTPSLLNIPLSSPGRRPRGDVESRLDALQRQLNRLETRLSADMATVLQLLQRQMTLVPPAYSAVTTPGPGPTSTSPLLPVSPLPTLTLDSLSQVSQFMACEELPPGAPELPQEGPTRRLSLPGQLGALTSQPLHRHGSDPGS

T1 sequence (Q00960 27-1482, other chains not shown): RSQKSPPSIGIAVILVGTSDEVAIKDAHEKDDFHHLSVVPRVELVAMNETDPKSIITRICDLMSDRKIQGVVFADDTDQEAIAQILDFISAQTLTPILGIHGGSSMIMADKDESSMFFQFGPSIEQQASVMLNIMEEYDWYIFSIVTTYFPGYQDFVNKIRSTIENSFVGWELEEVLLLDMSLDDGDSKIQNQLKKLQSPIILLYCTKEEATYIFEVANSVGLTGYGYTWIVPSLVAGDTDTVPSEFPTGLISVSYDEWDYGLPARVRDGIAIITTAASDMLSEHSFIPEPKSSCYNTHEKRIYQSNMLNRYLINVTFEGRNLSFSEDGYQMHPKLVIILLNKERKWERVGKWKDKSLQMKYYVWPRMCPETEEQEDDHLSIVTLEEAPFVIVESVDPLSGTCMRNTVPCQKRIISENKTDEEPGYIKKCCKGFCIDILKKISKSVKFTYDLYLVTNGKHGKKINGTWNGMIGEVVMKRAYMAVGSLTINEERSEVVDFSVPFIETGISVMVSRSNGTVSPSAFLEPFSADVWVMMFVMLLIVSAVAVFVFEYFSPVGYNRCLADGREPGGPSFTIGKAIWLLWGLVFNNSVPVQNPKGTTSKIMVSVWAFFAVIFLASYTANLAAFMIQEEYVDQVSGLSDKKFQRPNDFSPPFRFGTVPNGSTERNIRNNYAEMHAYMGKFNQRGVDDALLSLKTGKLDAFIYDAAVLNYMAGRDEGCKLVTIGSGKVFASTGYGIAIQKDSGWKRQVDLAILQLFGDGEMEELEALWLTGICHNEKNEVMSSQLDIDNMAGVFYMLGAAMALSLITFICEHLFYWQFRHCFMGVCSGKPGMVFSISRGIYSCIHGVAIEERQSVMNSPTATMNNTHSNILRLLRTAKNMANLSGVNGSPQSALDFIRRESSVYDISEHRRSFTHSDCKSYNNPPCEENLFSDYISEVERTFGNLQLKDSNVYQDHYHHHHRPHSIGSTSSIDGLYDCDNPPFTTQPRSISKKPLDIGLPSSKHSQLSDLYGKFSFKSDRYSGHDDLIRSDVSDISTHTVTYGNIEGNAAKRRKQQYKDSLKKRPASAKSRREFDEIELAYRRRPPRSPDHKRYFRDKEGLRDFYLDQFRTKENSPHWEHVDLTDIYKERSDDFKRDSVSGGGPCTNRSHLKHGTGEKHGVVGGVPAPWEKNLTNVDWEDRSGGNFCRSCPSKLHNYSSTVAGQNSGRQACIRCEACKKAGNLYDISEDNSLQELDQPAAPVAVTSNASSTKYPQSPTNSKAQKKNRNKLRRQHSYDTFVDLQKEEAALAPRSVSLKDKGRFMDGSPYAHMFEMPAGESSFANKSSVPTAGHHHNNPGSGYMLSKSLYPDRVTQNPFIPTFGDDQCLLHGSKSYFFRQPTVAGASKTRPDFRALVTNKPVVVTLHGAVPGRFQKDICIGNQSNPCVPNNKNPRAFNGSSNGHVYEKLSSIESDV

One may read the pIC50 as −log10 of the IC50, conventionally taken in molar units. With `COc1cc(F)ccc1-n1cc(Cn2ccnc2C2CC2)nn1` [Example 62, 4-(2-Cyclopropyl-imidazol-1-ylmethyl)-1-(4-fluoro-2-methoxy-phenyl)-1H-[1,2,3]triazole], the values for the pIC50 on rat NR1/NR2B receptor [1], on rat NR1/NR2B receptor [2] and at hERG-receptor were 5.48, 5.48 and 4.34, respectively.
Take `Cc1ccc(-n2cc(Cn3ccnc3C3CC3)nn2)cc1F` [Example 63, 4-(2-Cyclopropyl-imidazol-1-ylmethyl)-1-(3-fluoro-4-methyl-phenyl)-1H-[1,2,3]triazole]: the pIC50 at rat NR1/NR2B receptor [1] was 7.06; at rat NR1/NR2B receptor [2] it was 7.06; at hERG-receptor, 4.95.
Regarding `FC(F)(F)c1cc(-n2cc(Cn3ccnc3C3CC3)nn2)ccc1Cl` [Example 66, 1-(4-Chloro-3-trifluoromethyl-phenyl)-4-(2-cyclopropyl-imidazol-1-ylmethyl)-1H-[1,2,3]triazole], the pIC50 was 7.42 on rat NR1/NR2B receptor [1], 7.42 on rat NR1/NR2B receptor [2] and 5.45 on hERG-receptor.
Regarding `FC(F)(F)Oc1cccc(-n2cc(Cn3ccnc3C3CC3)nn2)c1` [Example 67, 4-(2-Cyclopropyl-imidazol-1-ylmethyl)-1-(3-trifluoromethoxy-phenyl)-1H-[1,2,3]triazole], the pIC50 was 7.46 on rat NR1/NR2B receptor [1], 7.46 on rat NR1/NR2B receptor [2] and 5.59 on hERG-receptor.
Take `FC(F)(F)c1cccc(-n2cc(Cn3ccnc3C3CC3)nn2)c1` [Example 68, 4-(2-Cyclopropyl-imidazol-1-ylmethyl)-1-(3-trifluoromethyl-phenyl)-1H-[1,2,3]triazole]: the negative-log IC50 (pIC50) on rat NR1/NR2B receptor [1] is 7.04; at rat NR1/NR2B receptor [2], 7.04; on hERG-receptor, 5.29.
Turning to `FC(F)(F)c1ccc(-n2cc(Cn3ccnc3C3CC3)nn2)cc1` [Example 69, 4-(2-Cyclopropyl-imidazol-1-ylmethyl)-1-(4-trifluoromethyl-phenyl)-1H-[1,2,3]triazole], the pIC50 on rat NR1/NR2B receptor [1] was 6.76; on rat NR1/NR2B receptor [2], 6.76; on hERG-receptor it was 5.36.
Take `CCc1nccn1Cc1cn(-c2ccc(Cl)c(C)c2)nn1` [Example 70, 1-(4-Chloro-3-methyl-phenyl)-4-(2-ethyl-imidazol-1-ylmethyl)-1H-[1,2,3]triazole]: the pIC50 on rat NR1/NR2B receptor [1] is 8.74; on rat NR1/NR2B receptor [2] it was 8.74; on hERG-receptor, 5.41.
For `Cc1cc(-n2cc(Cn3ccnc3C(C)C)nn2)ccc1Cl` [Example 71, 1-(4-Chloro-3-methyl-phenyl)-4-(2-isopropyl-imidazol-1-ylmethyl)-1H-[1,2,3]triazole], the pIC50 is 8.35 on rat NR1/NR2B receptor [1], 8.35 on rat NR1/NR2B receptor [2] and 5.00 at hERG-receptor.
`Cc1cc(-n2cc(Cn3ccnc3CCO)nn2)ccc1Cl` [Example 74, 1-(4-Chloro-3-methyl-phenyl)-4-[2-(2-hydroxy-ethyl)-imidazol-1-ylmethyl]-1H-[1,2,3]triazole]: the values for the negative-log IC50 (pIC50) on rat NR1/NR2B receptor [1], on rat NR1/NR2B receptor [2] and at hERG-receptor were 8.16, 8.16 and 4.47, respectively.
Take `Cc1cc(-n2cc(Cn3ccnc3CCF)nn2)ccc1Cl` [Example 75, 1-(4-Chloro-3-methyl-phenyl)-4-[2-(2-fluoro-ethyl)-imidazol-1-ylmethyl]-1H-[1,2,3]triazole]: the pIC50 is 7.87 at rat NR1/NR2B receptor [1], 7.87 at rat NR1/NR2B receptor [2] and 4.48 on hERG-receptor.
On to `Cc1nccn1Cc1cn(-c2cccc(C3CC3)c2)nn1` [Example 76, 1-(3-Cyclopropyl-phenyl)-4-(2-methyl-imidazol-1-ylmethyl)-1H-[1,2,3]triazole], for which the pIC50 is 7.80 at rat NR1/NR2B receptor [1], 7.80 at rat NR1/NR2B receptor [2] and 4.99 on hERG-receptor.
As to `Cc1nccn1Cc1cn(-c2cccc(S(C)(=O)=O)c2)nn1` [Example 77, 1-(3-Methanesulfonyl-phenyl)-4-(2-methyl-imidazol-1-ylmethyl)-1H-[1,2,3]triazole], the negative logarithm of the IC50 (pIC50) was 6.21 on rat NR1/NR2B receptor [1], 6.21 at rat NR1/NR2B receptor [2] and 3.82 on hERG-receptor.
On to `CS(=O)(=O)c1cccc(-n2cc(Cn3ccnc3CCF)nn2)c1` [Example 80, 4-[2-(2-Fluoro-ethyl)-imidazol-1-ylmethyl]-1-(3-methanesulfonyl-phenyl)-1H-[1,2,3]triazole], for which the pIC50 is 5.57 at rat NR1/NR2B receptor [1], 5.57 on rat NR1/NR2B receptor [2] and less than 4.00 at hERG-receptor.
With `CCc1nccn1Cc1cn(-c2ccc(F)c(C(F)F)c2)nn1` [Example 83, 1-(3-Difluoromethyl-4-fluoro-phenyl)-4-(2-ethyl-imidazol-1-ylmethyl)-1H-[1,2,3]triazole], the negative-log IC50 (pIC50) at rat NR1/NR2B receptor [1] was 8.39; at rat NR1/NR2B receptor [2], 8.39; on hERG-receptor, 4.78.
As to `CC(C)(C)c1nccn1Cc1cn(-c2ccc(F)c(C(F)F)c2)nn1` [Example 87, 1-(3-Difluoromethyl-4-fluoro-phenyl)-4-(2-tert.butyl-imidazol-1-ylmethyl)-1H-[1,2,3]triazole], the pIC50 at rat NR1/NR2B receptor [1] is 6.88; at rat NR1/NR2B receptor [2] it was 6.88; on hERG-receptor it was 5.12.
Turning to `OCCc1nccn1Cc1cn(-c2ccc(F)c(C(F)F)c2)nn1` [Example 88, 1-(3-Difluoromethyl-4-fluoro-phenyl)-4-[2-(2-hydroxy-ethyl)-imidazol-1-ylmethyl]-1H-[1,2,3]triazole], the negative-log IC50 (pIC50) was 7.84 at rat NR1/NR2B receptor [1], 7.84 on rat NR1/NR2B receptor [2] and 4.03 at hERG-receptor.
As to `Cc1nccn1Cc1cn(-c2ccc(Cl)c(C(F)F)c2)nn1` [Example 89, 1-(4-Chloro-3-difluoromethyl-phenyl)-4-(2-methyl-imidazol-1-ylmethyl)-1H-[1,2,3]triazole], the negative logarithm of the IC50 (pIC50) was 8.47 at rat NR1/NR2B receptor [1], 8.47 at rat NR1/NR2B receptor [2] and 5.07 at hERG-receptor.
For the compound `FC(F)c1cc(-n2cc(Cn3ccnc3C3CC3)nn2)ccc1Cl` [Example 90, 1-(4-Chloro-3-difluoromethyl-phenyl)-4-(2-cyclopropyl-imidazol-1-ylmethyl)-1H-[1,2,3]triazole], the pIC50 on rat NR1/NR2B receptor [1] is 7.81; at rat NR1/NR2B receptor [2], 7.81; at hERG-receptor it was 5.27.
With `CCc1nccn1Cc1cn(-c2ccc(Cl)c(C(F)F)c2)nn1` [Example 91, 1-(4-Chloro-3-difluoromethyl-phenyl)-4-(2-ethyl-imidazol-1-ylmethyl)-1H-[1,2,3]triazole], the negative-log IC50 (pIC50) was 8.61 at rat NR1/NR2B receptor [1], 8.61 on rat NR1/NR2B receptor [2] and 5.14 at hERG-receptor.
As for `CC(C)c1nccn1Cc1cn(-c2ccc(Cl)c(C(F)F)c2)nn1` [Example 92, 1-(4-Chloro-3-difluoromethyl-phenyl)-4-(2-isopropyl-imidazol-1-ylmethyl)-1H-[1,2,3]triazole], the negative logarithm of the IC50 (pIC50) is 8.28 on rat NR1/NR2B receptor [1], 8.28 on rat NR1/NR2B receptor [2] and 4.95 at hERG-receptor.
As to `FC(F)Oc1cc(-n2cc(Cn3ccnc3C3CC3)nn2)ccc1Cl` [Example 94, 1-(4-Chloro-3-difluoromethoxy-phenyl)-4-(2-cyclopropyl-imidazol-1-ylmethyl)-1H-[1,2,3]triazole], the pIC50 on rat NR1/NR2B receptor [1] is 8.41; on rat NR1/NR2B receptor [2], 8.41; on hERG-receptor, 5.52.
`CC(C)(C)c1nccn1Cc1cn(-c2ccc(Cl)c(OC(F)F)c2)nn1` [Example 95, 4-(2-tert-Butyl-imidazol-1-ylmethyl)-1-(4-chloro-3-difluoromethoxy-phenyl)-1H-[1,2,3]triazole]: the negative-log IC50 (pIC50) at rat NR1/NR2B receptor [1] is 7.14; on rat NR1/NR2B receptor [2], 7.14; at hERG-receptor, 5.23.
Consider `CCc1nccn1Cc1cn(-c2ccc(Cl)c(OC(F)F)c2)nn1` [Example 96, 1-(4-Chloro-3-difluoromethoxy-phenyl)-4-(2-ethyl-imidazol-1-ylmethyl)-1H-[1,2,3]triazole], for which the figures for the pIC50 at rat NR1/NR2B receptor [1], on rat NR1/NR2B receptor [2] and at hERG-receptor were 8.80, 8.80 and 5.36, respectively.
For `FCCc1nccn1Cc1cn(-c2ccc(Cl)c(OC(F)F)c2)nn1` [Example 99, 1-(4-Chloro-3-difluoromethoxy-phenyl)-4-[2-(2-fluoro-ethyl)-imidazol-1-ylmethyl]-1H-[1,2,3]triazole], the pIC50 was 8.22 at rat NR1/NR2B receptor [1], 8.22 at rat NR1/NR2B receptor [2] and 4.62 on hERG-receptor.
